Assay results from publication PMC2997783, “Genetic and Chemical Evaluation of Trypanosoma brucei Oleate Desaturase as a Candidate Drug Target” (PLoS ONE, 2010).

How the values were obtained:
oleate desaturase (OD) = target: T1, oleate desaturase (OD) (Trypanosoma brucei, UniProt Q6UCJ6); experiment: whole-cell […]-oleate desaturation, argentation-TLC and scintillation counting; type: cell-based; conditions: intact bloodstream-form cells; 50 µM 13-TS, 30 min preincubation, 60 min with [14C]-oleate; may act as a metabolite of the added acid
T1 construct: native full-length enzyme in intact T. brucei cells
T1 sequence (Q6UCJ6 1-408): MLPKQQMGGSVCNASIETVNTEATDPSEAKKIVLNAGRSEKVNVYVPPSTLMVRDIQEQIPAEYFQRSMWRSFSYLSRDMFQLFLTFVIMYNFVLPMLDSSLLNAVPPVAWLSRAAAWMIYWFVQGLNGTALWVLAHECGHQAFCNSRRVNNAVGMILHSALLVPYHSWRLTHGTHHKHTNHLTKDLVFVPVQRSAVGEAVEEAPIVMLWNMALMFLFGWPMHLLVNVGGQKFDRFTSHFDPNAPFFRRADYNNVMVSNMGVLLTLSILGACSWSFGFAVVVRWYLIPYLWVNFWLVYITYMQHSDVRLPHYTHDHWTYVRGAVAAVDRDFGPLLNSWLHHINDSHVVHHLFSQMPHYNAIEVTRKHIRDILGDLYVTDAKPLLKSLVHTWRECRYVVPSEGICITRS

[1] = target: T2, stearoyl-CoA desaturase (SCD) (Trypanosoma brucei, UniProt Q57YK1); experiment: whole-cell […]-stearate desaturation, argentation-TLC and scintillation counting; type: cell-based; conditions: intact bloodstream-form cells; 50 µM 13-TS, 30 min preincubation, 60 min with [14C]-stearate; may act as a metabolite of the added acid
T2 construct: gene Tb08.11J15.870; native enzyme in intact bloodstream-form cells; carries a cytochrome b-like domain
T2 sequence (Q57YK1 1-431): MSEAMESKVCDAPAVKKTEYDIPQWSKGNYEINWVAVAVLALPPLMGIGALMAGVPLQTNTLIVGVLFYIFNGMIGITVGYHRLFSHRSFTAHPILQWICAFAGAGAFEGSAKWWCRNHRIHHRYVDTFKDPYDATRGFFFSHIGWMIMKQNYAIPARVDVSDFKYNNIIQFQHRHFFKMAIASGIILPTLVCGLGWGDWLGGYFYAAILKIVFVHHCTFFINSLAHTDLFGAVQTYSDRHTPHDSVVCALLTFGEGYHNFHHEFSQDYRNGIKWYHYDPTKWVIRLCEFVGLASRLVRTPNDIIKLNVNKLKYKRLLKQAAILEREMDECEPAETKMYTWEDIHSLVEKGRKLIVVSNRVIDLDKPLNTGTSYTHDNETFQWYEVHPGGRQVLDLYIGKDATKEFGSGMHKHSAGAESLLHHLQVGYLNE

CCCCCSCCCCCCCCCCCC(=O)O [13-TS, 13-thiastearic acid]
% conversion of oleate to linoleate with 50 μM inhibitor (control 20.4%) (oleate desaturase (OD)): 7.7%
% conversion of stearate to oleate with 50 μM inhibitor (control 23.1%) [1]: 19%
